In patent US11267802B2 (BEBETTER MED INC., priority 2015, dated 2022):

What was measured:
H358 = assay: Inhibition assay on tumor cell proliferation (CellTiter-Glo), H358; type: cell-based, Human; settings: Homo sapiens, NCI-H358; H358 (wild-type EGFR), 72 hours, 10% bovine serum
Method: (§1) By using a CellTiter-Glo luminescence cell viability test kit (Promega, # G7572), the content of adenosine triphosphate (ATP) was determined to assess the cell viability.
(§2) Human colon cancer cell line LOVO and human non-small-cell lung cancer H358 express wild-type EGFR. Human non-small-cell lung cancer cell line HCC827 carries deletion mutation in exon 19 (ex19del). Those cell lines are purchased from Shanghai Fudan IBS Cell Resource Center and American Tissue Culture Collection (ATCC).
(§3) The assay procedure is as follows. The cells in a cell culture plate were digested with a pancreatic enzyme, re-suspended in a DPBS culture medium, and had the cell density counted by Scepter automated cytometer (Millipore # PHCC00000). The cells were diluted to a solution of 44,000 cells per ml. The cell solution with adjusted density was added to the cell assay plate at 90 microliters per well. The plate was placed in an incubator with 5% CO2 at 37° C. for 24 hours of incubation, and then added with different concentrations of subject compounds. The cells were incubated for 72 hours with the compounds in presence of 10% bovine serum. The content of ATP was determined by a CellTiter-Glo® Luminescent Cell Viability Assay kit (see the manufacturer's instruction for details) to evaluate cell-growth inhibition.
(§4) Briefly, 30 μl of CellTiter-Glo® reagent was added to each well, and then shaken for 10 minutes to induce cell lysis. The fluorescent signal was detected and recorded by Fluoroskan Ascent FL (Thermo). The max signal value was obtained from the cells treated by dimethyl sulfoxide for 72 hours. The min signal value was obtained from the medium alone (the number of the cells was 0). Inhibitory rate %=(max signal value−compound signal value)/(max signal value−min signal value)×100. The data was processed by GraphPad Prism V5.0 software (GraphPad Software, San Diego, Calif.). Sigmoidal dose-response curve fitting was performed to calculate the IC50 value.

H1975 = assay: Inhibition assay on tumor cell proliferation (CellTiter-Glo), H1975; type: cell-based, Human; settings: Homo sapiens, NCI-H1975; H1975 (L858R and T790M EGFR double mutation), 72 hours, 10% bovine serum
EGFR T790M/L858R = target: T1, EGFR T790M/L858R (Homo sapiens, UniProt P00533, L858R/T790M); assay: Mutant EGFR T790M/L858R activity inhibition assay (Caliper mobility shift); type: biochemical; settings: read-out: enzyme activity inhibition (IC50) EGFR T790M/L858R
T1 construct: purchased Invitrogen PR8911A
T1 sequence (P00533 25-1210 T790M/L858R): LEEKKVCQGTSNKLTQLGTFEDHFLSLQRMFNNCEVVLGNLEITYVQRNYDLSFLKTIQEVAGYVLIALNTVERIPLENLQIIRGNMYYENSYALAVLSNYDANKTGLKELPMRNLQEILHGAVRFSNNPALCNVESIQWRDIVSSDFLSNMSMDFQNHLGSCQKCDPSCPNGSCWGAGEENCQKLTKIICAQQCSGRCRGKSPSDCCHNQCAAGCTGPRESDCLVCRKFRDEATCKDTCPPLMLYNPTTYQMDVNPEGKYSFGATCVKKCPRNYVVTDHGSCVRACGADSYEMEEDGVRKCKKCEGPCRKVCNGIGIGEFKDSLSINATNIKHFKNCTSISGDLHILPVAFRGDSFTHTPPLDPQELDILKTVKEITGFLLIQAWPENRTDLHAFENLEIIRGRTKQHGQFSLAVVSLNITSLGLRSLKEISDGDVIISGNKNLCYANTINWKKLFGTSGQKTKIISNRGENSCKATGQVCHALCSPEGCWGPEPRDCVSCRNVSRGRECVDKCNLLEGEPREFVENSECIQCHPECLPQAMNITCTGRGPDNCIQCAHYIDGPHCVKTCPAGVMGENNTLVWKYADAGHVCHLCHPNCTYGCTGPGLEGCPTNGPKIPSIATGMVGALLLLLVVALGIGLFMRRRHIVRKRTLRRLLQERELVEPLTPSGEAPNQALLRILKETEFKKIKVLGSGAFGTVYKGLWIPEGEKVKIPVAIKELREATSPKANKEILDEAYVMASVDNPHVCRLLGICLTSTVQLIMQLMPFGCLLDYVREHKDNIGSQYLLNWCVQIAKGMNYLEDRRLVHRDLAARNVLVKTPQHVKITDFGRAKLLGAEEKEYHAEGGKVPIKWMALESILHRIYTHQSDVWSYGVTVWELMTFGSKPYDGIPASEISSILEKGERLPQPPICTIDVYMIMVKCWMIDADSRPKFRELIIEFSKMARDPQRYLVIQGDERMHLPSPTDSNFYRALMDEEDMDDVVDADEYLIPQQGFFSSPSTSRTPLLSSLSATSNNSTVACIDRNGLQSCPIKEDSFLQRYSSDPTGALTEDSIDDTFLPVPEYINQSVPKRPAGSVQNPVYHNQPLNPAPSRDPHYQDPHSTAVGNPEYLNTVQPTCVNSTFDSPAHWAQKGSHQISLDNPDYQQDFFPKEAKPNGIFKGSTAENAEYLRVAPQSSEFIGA
Method: The assay procedure is as follows. […] 5 μl of the compound dissolved in 10% DMSO at a concentration of 5-fold of the final reaction concentration was added to a 384 well plate. 5 μl of 10% DMSO was used in a no-compound control well, while 5 μl of a kinase buffer was used in a no-enzyme activity control well. […] The conversion rate was read on Caliper EZ Reader II (Caliper Life Sciences). The conversion rate was then converted to inhibitory rate.
As used herein, “max” refers to the conversion rate of the DMSO no-compound control well, and “min” refers to the conversion rate of the no-enzyme activity control well. A curve was obtained by plotting the inhibitory rate as a function of the compound concentration. The XLFit excel add-in version 4.3.1 software was used to fit the curve and calculate the IC50. Inhibitory rate %=(max−conversion rate)/(max−min)×100.

LOVO = assay: Inhibition assay on tumor cell proliferation (CellTiter-Glo), LOVO; type: cell-based, Human; settings: Homo sapiens; LOVO (wild-type EGFR), 72 hours, 10% bovine serum
Method: as §1, §2, §3, §4

| SMILES | IC50 (H358) [nM] | IC50 (H1975) [nM] | IC50 (EGFR T790M/L858R) [nM] | IC50 (LOVO) [nM] | melting point [°C] |
| --- | --- | --- | --- | --- | --- |
| C=CC(=O)Nc1cc(Nc2ncc(OC)c(-n3ccc4ccccc43)n2)c(OC)cc1N(C)CCN(C)C [Compound 6, N-(5-((4-(1H-indol-1-yl)-5-methoxypyrimidin-2-yl)amino)-2-((2-(dimethylamino)ethyl)(methyl)amino)-4-methoxyphenyl)acrylamide] | > 1000 | < 10 | 1 to 10 | > 1000 | 143.3 to 147.8 |
| C=CC(=O)Nc1cc(Nc2ncc(N(C)C)c(-n3ccc4ccccc43)n2)c(OC)cc1N(C)CCN(C)C [Compound 10, N-(5-(5-(dimethylamino)-4-(1H-indol-1-yl)pyrimidin-2-ylamino)-2-((2-(dimethylamino)ethyl)(methyl)amino)-4-methoxyphenyl)acrylamide] | 100 to 1000 | < 10 | 1 to 10 | > 1000 | 154 to 155 |
| C=CC(=O)Nc1cc(Nc2nccc(-n3ccc4cc(OC)ccc43)n2)c(OC)cc1N(C)CCN(C)C [Compound 27, N-(2-((2-(dimethylamino)ethyl)(methyl)amino)-4-methoxy-5-((4-(5-methoxy-1H-indol-1-yl)pyrimidin-2-yl)amino)phenyl)acrylamide] | 100 to 1000 | < 10 | < 1 | > 1000 | 117 to 118 |
| C=CC(=O)Nc1cc(Nc2nccc(-n3ccc4cc(F)ccc43)n2)c(OC)cc1N(C)CCN(C)C [Compound 28, N-(2-((2-(dimethylamino)ethyl)(methyl)amino)-5-((4-(5-fluoro-1H-indol-1-yl)pyrimidin-2-yl)amino)-4-methoxyphenyl)acrylamide] | 100 to 1000 | < 10 | < 1 | > 1000 | 168 to 170 |
| C=CC(=O)Nc1cc(Nc2nccc(-n3ccc4ccc(F)cc43)n2)c(OC)cc1N(C)CCN(C)C [Compound 29, N-(2-((2-(dimethylamino)ethyl)(methyl)amino)-5-((4-(6-fluoro-1H-indol-1-yl)pyrimidin-2-yl)amino)-4-methoxyphenyl)acrylamide] | 100 to 1000 | < 10 | < 1 | > 1000 | 164 to 165 |
| C=CC(=O)Nc1cc(Nc2nccc(-n3ccc4c(F)cccc43)n2)c(OC)cc1N(C)CCN(C)C [Compound 30, N-(2-((2-(dimethylamino)ethyl)(methyl)amino)-5-((4-(4-fluoro-1H-indol-1-yl)pyrimidin-2-yl)amino)-4-methoxyphenyl)acrylamide] | 100 to 1000 | < 10 | < 1 | > 1000 | 165.5 to 166.5 |
| C=CC(=O)Nc1cc(Nc2nccc(-n3ccc4cc(C#N)ccc43)n2)c(OC)cc1N(C)CCN(C)C [Compound 33, N-(5-((4-(5-cyano-1H-indol-1-yl)pyrimidin-2-yl)amino)-2-((2-(dimethylamino)ethyl)(methyl)amino)-4-methoxyphenyl)acrylamide] | 100 to 1000 | < 10 | < 1 | > 1000 | 127 to 128 |
| C=CC(=O)Nc1cc(Nc2nccc(-n3ccc4cc(O)ccc43)n2)c(OC)cc1N(C)CCN(C)C [Compound 36, N-(2-((2-(dimethylamino)ethyl)(methyl)amino)-5-((4-(5-hydroxy-1H-indol-1-yl)pyrimidin-2-yl)amino)-4-methoxyphenyl)acrylamide] | 100 to 1000 | < 10 | < 1 | > 1000 | 218 to 219 |
| C=CC(=O)Nc1cc(Nc2nccc(-n3ccc4cc(OCCO)ccc43)n2)c(OC)cc1N(C)CCN(C)C [Compound 37, N-(2-((2-(dimethylamino)ethyl)(methyl)amino)-5-((4-(5-(2-hydroxyethoxy)-1H-indol-1-yl)pyrimidin-2-yl)amino)-4-methoxyphenyl)acrylamide] | 100 to 1000 | < 10 | < 1 | > 1000 | 65 to 67 |
| C=CC(=O)Nc1cc(Nc2nccc(-n3ccc4cc(OCCOC)ccc43)n2)c(OC)cc1N(C)CCN(C)C [Compound 38, N-(2-((2-(dimethylamino)ethyl)(methyl)amino)-4-methoxy-5-((4-(5-(2-methoxyethoxy)-1H-indol-1-yl)pyrimidin-2-yl)amino)phenyl)acrylamide] | 100 to 1000 | < 10 | < 1 | > 1000 | 59 to 61 |
| C=CC(=O)Nc1cc(Nc2nccc(-n3ccc4cc(C(N)=O)ccc43)n2)c(OC)cc1N(C)CCN(C)C [Compound 41, 1-(2-((5-acrylamido-4-((2-(dimethylamino)ethyl)(methyl)amino)-2-methoxyphenyl)amino)pyrimidin-4-yl)-1H-indole-5-carboxamide] | 100 to 1000 | < 10 | < 1 | > 1000 | 121.3 to 125.1 |
| C=CC(=O)Nc1cc(Nc2nccc(-n3cc(Cl)c4ccccc43)n2)c(OC)cc1N(C)CCN(C)C [Compound 46, N-(5-((4-(3-chloro-1H-indol-1-yl)pyrimidin-2-yl)amino)-2-((2-(dimethylamino)ethyl)(methyl)amino)-4-methoxyphenyl)acrylamide] | > 1000 | 10 to 50 | 1 to 10 | > 1000 | 142 to 144 |
| C=CC(=O)Nc1cc(Nc2nccc(-n3c(=O)n(C)c4cc(Cl)ccc43)n2)c(OC)cc1N(C)CCN(C)C [Compound 51, N-(5-(4-(5-chloro-3-methyl-2-oxo-2,3-dihydro-1H-benzo[d]imidazol-1-yl)pyrimidin-2-ylamino)-2-((2-(dimethylamino)ethyl)(methyl)amino)-4-methoxyphenyl)acrylamide] | 100 to 1000 | < 10 | < 1 | > 1000 | 70 to 71 |
| C=CC(=O)Nc1cc(Nc2nccc(-n3c(=O)n(C)c4cc(C#N)ccc43)n2)c(OC)cc1N(C)CCN(C)C [Compound 52, N-(5-((4-(5-cyano-3-methyl-2-oxo-2,3-dihydro-1H-benzo[d]imidazol-1-yl)pyrimidin-2-yl)amino)-2-((2-(dimethylamino)ethyl)(methyl)amino)-4-methoxyphenyl)acrylamide] | 100 to 1000 | < 10 | < 1 | > 1000 | 183 to 185 |
| C=CC(=O)Nc1cc(Nc2ncc(OC)c(-n3c(=O)n(C)c4ccccc43)n2)c(OC)cc1N(C)CCN(C)C [Compound 57, N-(2-((2-(dimethylamino)ethyl) (methyl)amino)-4-methoxy-5-((5-methoxy-4-(3-methyl-2-oxo-2,3-dihydro-1H-benzo[d]imidazol-1-yl)pyrimidin-2-yl)amino)phenyl)acrylamide] | > 1000 | 10 to 50 | 1 to 10 | > 1000 | 168 to 172 |
| COc1cc(N(C)CCN(C)C)c(NC(=O)/C=C/CN(C)C)cc1Nc1nccc(-n2ccc3ccccc32)n1 [Compound 69, (E)-N-(5-((4-(1H-indol-1-yl)pyrimidin-2-yl)amino)-2-((2-(dimethylamino)ethyl)(methyl)amino)-4-methoxyphenyl)-4-(dimethylamino)but-2-enamide] | 100 to 1000 | 50 to 100 | < 1 | 100 to 1000 | 116.2 to 118.1 |
| CC#CC(=O)Nc1cc(Nc2nccc(-n3ccc4ccccc43)n2)c(OC)cc1N(C)CCN(C)C [Compound 73, N-(5-((4-(1H-indol-1-yl)pyrimidin-2-yl)amino)-2-((2-(dimethylamino)ethyl)(methyl)amino)-4-methoxyphenyl)but-2-ynamide] | > 1000 | 50 to 100 | 1 to 10 | > 1000 | 189.7 to 191.8 |
